Results published in patent publication US20160206688A1, “METHODS FOR TREATING BACTEREMIA AND OSTEOMYELITIS USING ORITAVANCIN” (THE MEDICINES COMPANY, priority 2013, published 2016).
≈ marks a conversion by molar mass, not a printed value. Where two headings read alike, the source gives them in different places.

Legend:
Assay in all cases: Broth microdilution MIC, European bacteraemia isolates 2010-2012
[1] = system: Coagulase-negative staphylococci; format: cell-based, coagulase-negative staphylococci (CoNS); details: Coagulase-negative staphylococci (646); for MIC50: read-out: MIC 50%; for MIC90: read-out: MIC 90%
Method: (§1) A total of 2,904 clinical strains responsible for documented bacteremia among unique hospitalized patients in 38 hospitals in 11 European Union countries. Israel, Russia, Turkey and Ukraine were included in this study (2010-2012). Isolates were submitted to a central monitoring laboratory (JMI Laboratories, North Liberty. Iowa. USA), following previously established protocols. Bacterial species identification was performed by using an automated system (Vitek®2; bioMèrieux, Hazelwood, Mo., USA) or conventional biochemical algorithms, as required.
(§2) Isolates were tested for susceptibility by broth microdilution methods following the Clinical and Laboratory Standards Institute (CLSI; M07-A9, 2012) document. Susceptibility testing was performed in cation-adjusted Mueller-Hinton broth (CA-MHB) using dry-form panels manufactured by Thermo Fisher Scientific, formerly TREK Diagnostics Systems/Sensititre (Cleveland. Ohio, USA). These panels provide results equivalent to the CLSI-approved broth microdilution method supplemented with 0.002% polysorbate-80.
(§3) Quality assurance was performed by concurrent testing of CLSI-recommended (M100-S23, 2013) strains: E. faecalis ATCC 29212 and S. aureus ATCC 29213. Interpretation of comparator MIC results was in accordance with published CLSI (M100-S23) and European Committee on Antimicrobial Susceptibility Testing (EUCAST, 2013) criteria.

S. aureus = format: cell-based; details: S. aureus Methicillin-resistant (1,708); for % Resistant, CLSI / % Susceptible, CLSI: CLSI M100-S23 breakpoints; for % Resistant, EUCAST / % Susceptible, EUCAST: EUCAST 2013 breakpoints; for MIC50 / MIC90: Staphylococcus aureus; for MIC50: read-out: MIC 50%; for MIC90: read-out: MIC 90%
Method: as §1, §2, §3

E. faecalis = format: cell-based, Enterococcus faecalis; details: for % Resistant, CLSI / % Susceptible, CLSI: CLSI M100-S23 breakpoints; for MIC50 / MIC90: Enterococcus faecalis; for MIC50: read-out: MIC 50%; for MIC90: read-out: MIC 90%
Method: as §1, §2, §3

E. faecium = format: cell-based, Enterococcus faecium; details: for % Resistant, CLSI / % Susceptible, CLSI: CLSI M100-S23 breakpoints; for MIC90 / MIC50: Enterococcus faecium; for MIC90 / MIC50 / MIC 50% / MIC Range / MIC 90%: Table 2; for MIC90: read-out: MIC 90%; for MIC50: read-out: MIC 50%; for % Resistant, EUCAST / % Susceptible, EUCAST: EUCAST 2013 breakpoints
Method: as §1, §2, §3

[2] = E. faecium Vancomycin-resistant (VanA-phenotype) (153)
[3] = E. faecium Vancomycin-susceptible (257)
[4] = E. faecalis (445), EUCAST 2013 breakpoints

C[C@H]1COc2c(N3CCN(C)CC3)c(F)cc3c(=O)c(C(=O)O)cn1c23 [Levofloxacin]
% Resistant, CLSI ([1]; CLSI M100-S23 breakpoints): 56.2% | MIC50 ([1]; Table 2): 4 µg/mL (≈ 11.1 µM) | MIC90 ([1]; Table 2): > 4 µg/mL | % Resistant, CLSI (S. aureus): 90.3% | % Susceptible, CLSI (S. aureus): 8.6% | % Resistant, EUCAST (S. aureus): 90.3% | % Susceptible, EUCAST (S. aureus): 8.6% | MIC50 (S. aureus; Table 2): > 4 µg/mL | MIC90 (S. aureus; Table 2): > 4 µg/mL | % Resistant, CLSI (E. faecalis; E. faecalis (445)): 35.3% | % Susceptible, CLSI (E. faecalis; E. faecalis (445)): 64.3% | MIC50 (E. faecalis; Table 2, E. faecalis (445)): 1 µg/mL (≈ 2.77 µM) | MIC90 (E. faecalis; Table 2, E. faecalis (445)): > 4 µg/mL | % Resistant, CLSI (E. faecium; [2]): 100.0% | % Susceptible, CLSI (E. faecium; [2]): 0.0% | % Resistant, CLSI (E. faecium; [3]): 89.1% | % Susceptible, CLSI (E. faecium; [3]): 5.8% | MIC90 (E. faecium; [2]): > 4 µg/mL | MIC50 (E. faecium; [3]): > 4 µg/mL | MIC90 (E. faecium; [3]): > 4 µg/mL | MIC 50% (E. faecium; [2]): >4 µg/mL | MIC Range (E. faecium; [2]): >4 µg/mL

Cc1onc(-c2ccccc2)c1C(=O)N[C@@H]1C(=O)N2[C@@H]1SC(C)(C)[C@@H]2C(=O)O [Oxacillin]
% Resistant, CLSI ([1]; CLSI M100-S23 breakpoints): 78.8% | MIC50 ([1]; Table 2): > 2 µg/mL | MIC90 ([1]; Table 2): > 2 µg/mL

CN(C)[C@@H]1C(O)=C(C(N)=O)C(=O)[C@@]2(O)C(O)=C3C(=O)c4c(O)cccc4[C@@](C)(O)[C@H]3C[C@@H]12 [Tetracycline]
% Resistant, CLSI ([1]; CLSI M100-S23 breakpoints): 15.2% | MIC50 ([1]; Table 2): 1 µg/mL (≈ 2.25 µM) | MIC90 ([1]; Table 2): > 8 µg/mL | % Resistant, CLSI (S. aureus): 14.2% | % Susceptible, CLSI (S. aureus): 84.9% | % Resistant, EUCAST (S. aureus): 15.1% | % Susceptible, EUCAST (S. aureus): 84.4% | MIC50 (S. aureus; Table 2): ≤ 0.25 µg/mL | MIC90 (S. aureus; Table 2): > 8 µg/mL | % Resistant, CLSI (E. faecalis; E. faecalis (445)): 73.5% | % Susceptible, CLSI (E. faecalis; E. faecalis (445)): 26.5% | MIC50 (E. faecalis; Table 2, E. faecalis (445)): > 8 µg/mL | MIC90 (E. faecalis; Table 2, E. faecalis (445)): > 8 µg/mL | % Resistant, CLSI (E. faecium; [2]): 41.5% | % Susceptible, CLSI (E. faecium; [2]): 58.5% | % Resistant, CLSI (E. faecium; [3]): 43.2% | % Susceptible, CLSI (E. faecium; [3]): 56.0% | MIC90 (E. faecium; [2]): > 8 µg/mL | MIC50 (E. faecium; [3]): 0.5 µg/mL (≈ 1.13 µM) | MIC90 (E. faecium; [3]): > 8 µg/mL | MIC 50% (E. faecium; [2]): 0.5 µg/mL (≈ 1.13 µM)

Teicoplanin
% Resistant, CLSI ([1]; CLSI M100-S23 breakpoints): 0.8% | % Susceptible, CLSI ([1]; CLSI M100-S23 breakpoints): 97.7% | % Resistant, EUCAST ([1]; EUCAST 2013 breakpoints): 11.1% | % Susceptible, EUCAST ([1]; EUCAST 2013 breakpoints): 88.9% | MIC 50% ([1]; Table 2): ≦2 mg/L | MIC 90% ([1]; Table 2): 8 µg/mL | % Resistant, CLSI (S. aureus): 0.0% | % Susceptible, CLSI (S. aureus): 100.0% | % Resistant, EUCAST (S. aureus): 0.0% | % Susceptible, EUCAST (S. aureus): 100.0% | MIC 50% (S. aureus; Table 2): ≦2 mg/L | MIC 90% (S. aureus; Table 2): ≦2 mg/L | MIC Range (S. aureus; Table 2): ≦2 mg/L | % Resistant, CLSI (E. faecalis; E. faecalis (445)): 0.9% | % Susceptible, CLSI (E. faecalis; E. faecalis (445)): 99.1% | % Resistant, EUCAST (E. faecalis; [4]): 0.9% | % Susceptible, EUCAST (E. faecalis; [4]): 99.1% | % susceptible (E. faecalis; E. faecalis strains, criteria not stated): 99.1% | MIC 50% (E. faecalis; Table 2, E. faecalis (445)): ≦2 mg/L | MIC 90% (E. faecalis; Table 2, E. faecalis (445)): ≦2 mg/L | % Resistant, CLSI (E. faecium; [2]): 96.2% | % Susceptible, CLSI (E. faecium; [2]): 0.0% | % Resistant, EUCAST (E. faecium; [2]): 100.0% | % Susceptible, EUCAST (E. faecium; [2]): 0.0% | % Resistant, CLSI (E. faecium; [3]): 0.0% | % Susceptible, CLSI (E. faecium; [3]): 100.0% | % Resistant, EUCAST (E. faecium; [3]): 0.4% | % Susceptible, EUCAST (E. faecium; [3]): 99.6% | MIC 50% (E. faecium; [2]): >8 µg/mL | MIC 90% (E. faecium; [2]): >8 µg/mL | MIC Range (E. faecium; [2]): >8 µg/mL | MIC 50% (E. faecium; [3]): ≦2 mg/L | MIC 90% (E. faecium; [3]): ≦2 mg/L | MIC Range (E. faecium; [3]): ≦2-4 mg/L
